EC50 and IC50 data for 13 compounds are collected here from patent US6806265B2, “Non-nucleoside reverse transcriptase inhibitors” (priority 2002, dated 2004).

pEC50, pIC50: −log10 of the molar value. Like-named read-outs stand apart in the source and are kept apart here.

In experiment [1] the test system is HIV-1 double mutant K103N/Y181C. Kind of experiment: microbe, parasite or virus in culture. It is filed as cell-based. The note with it: for pEC50: double mutant K103N/Y181C, read-out: EC50 K103N/Y181C; for EC50: Human immunodeficiency virus 1, read-out: EC50 K103N/Y181C (nM).
The test system of the next experiment is HIV-1 wild type. Kind of experiment: microbe, parasite or virus in culture. The class given is cell-based. The note with it: for pEC50: wild type, read-out: EC50 WT RT; for EC50: Human immunodeficiency virus 1, read-out: EC50 WT RT (nM).
For experiment [2], the target named is T1, HIV-1 RT double mutant K103N/Y181C (Human immunodeficiency virus type 1 group M subtype B, UniProt P03366, K702N/Y780C).
T1 construct: HIV-1 wild type reverse transcriptase as well as the clinically significant double mutant K103N/Y181C
As to the kind of experiment: biochemical. On the procedure:
(§1) Utilizing the Reverse Transcriptase (RT) Assay described below, compounds were tested for their ability to inhibit the RNA-dependent DNA polymerase activity of HIV-1 RT. Certain specific compounds described in the Examples and in Tables 1-4, were so tested. The results of this testing appear in Table 5 as ranges of IC50 (nM) and EC50 (nM).
(§2) Reverse Transcriptase (RT) Assays

The target of experiment [3] is T2, HIV-1 wild type reverse transcriptase (Human immunodeficiency virus type 1 group M subtype B, UniProt P03366).
T2 construct: HIV-1 wild type reverse transcriptase
As to the kind of experiment: biochemical. The note with it: wild type RT; read-out: IC50 WT RT. On the procedure:
as §1, §2

[4] abbreviates: RT double mutant K103N/Y181C, read-out: IC50 K103N/Y181C.

With `CCN1c2ncc(CCOc3ccc(-c4ccc(CC(=O)O)cc4)cc3CO)cc2C(=O)N(C)c2cccnc21` [Entry 1104], the pEC50 was 7.30 to 8.00 in experiment [1] and over 8.00 in the experiment with HIV-1 wild type. For the same compound, the pIC50 in experiment [2] (setting [4]) and in experiment [3] was over 7.30 each time.
For `CCN1c2ncc(CCOc3ccc(C(=O)Nc4cccnc4O)cc3C)cc2C(=O)N(C)c2cccnc21` [Entry 3021], the EC50 in experiment [1] is under 10 nM. The pEC50 in the experiment on HIV-1 wild type (Human immunodeficiency virus 1) was over 8.00. The pIC50 in experiment [2] and in experiment [3] was over 7.30 throughout.
Take `CCN1c2ncc(CCOc3ccc(NC(=O)Nc4ccc(C(=O)O)cc4)cc3C)cc2C(=O)N(C)c2cccnc21` [Entry 3031]: the EC50 in experiment [1] is over 50 nM; in the experiment on HIV-1 wild type it was 10 to 50 nM. For the same compound, the pIC50 in experiment [2] and in experiment [3] was over 7.30 in each case.
For the compound `CCN1c2ncc(CCOc3ccc(NC(=O)c4ccccc4C(=O)O)cc3C)cc2C(=O)N(C)c2cccnc21` [Entry 3033], the EC50 in experiment [1] is 10 to 50 nM; in the experiment on HIV-1 wild type, under 10 nM. The pIC50 in experiment [2] is under 7.00; in experiment [3], over 7.30.
Turning to `CCN1c2ncc(CCOc3ccc(-c4ccccc4)cc3)cc2C(=O)N(C)c2cccnc21` [Entry 1101], the values for the pEC50 (in experiment [1]; in the experiment on HIV-1 wild type) were under 7.30 and over 8.00, respectively. Further, the pIC50 in experiment [2] (setting [4]) was 7.00 to 7.30; in experiment [3], over 7.30.
As for `CCN1c2ncc(CCOc3ccc(NC(=O)c4ccc(C(=O)O)cc4)cc3C)cc2C(=O)N(C)c2cccnc21` [Entry 3032], the EC50 in experiment [1] is over 50 nM; in the experiment on HIV-1 wild type, 10 to 50 nM. Also, the pIC50 in experiment [2] and in experiment [3] was over 7.30 throughout.
With `CCN1c2ncc(CCOc3ccc(C(=O)Nc4cc[n+]([O-])cc4)cc3C)cc2C(=O)N(C)c2cccnc21` [Entry 3004, 4-[2-(11-Ethyl-6,11-dihydro-5-methyl-6-oxo-5H-dipyrido[3,2-b:2′,3′-e][1,4]diazepin-8-yl)ethoxy]-3-methyl-N-(1-oxido-4-pyridinyl)benzamide], in experiment [1], the EC50 is under 10 nM. For the same compound, in the experiment with HIV-1 wild type (Human immunodeficiency virus 1), the pEC50 was over 8.00. In addition, the pIC50 in experiment [2] and in experiment [3] was over 7.30 in each case.
In the case of `CCN1c2ncc(CCOc3ccc(S(=O)(=O)NCC(=O)O)cc3C)cc2C(=O)N(C)c2cccnc21` [Entry 4020], the EC50 in experiment [1] was over 50 nM. Further, the pEC50 in the experiment on HIV-1 wild type (Human immunodeficiency virus 1) was under 7.30. Also, the pIC50 in experiment [2] and in experiment [3] was over 7.30 throughout.
Consider `CCN1c2ncc(CCOc3ccc(-c4cocn4)cc3C)cc2C(=O)N(C)c2cccnc21` [Entry 1099, 11-Ethyl-5,11-dihydro-5-methyl-8-{2-[2-methyl-4-(4-oxazolyl)phenoxy]ethyl}-6H-dipyrido[3,2-b:2′,3′-e][1,4]diazepin-6-one], for which the EC50 in experiment [1] was under 10 nM. For the same compound, in the experiment with HIV-1 wild type (Human immunodeficiency virus 1), the pEC50 is over 8.00. In addition, the pIC50 in experiment [2] and in experiment [3] was over 7.30 throughout.
On to `CCN1c2ncc(CCOc3ccc(C(=O)NS(=O)(=O)c4ccccc4)cc3C)cc2C(=O)N(C)c2cccnc21` [Entry 3009], for which the EC50 in experiment [1] was over 50 nM; in the experiment on HIV-1 wild type, 10 to 50 nM. In addition, the pIC50 in experiment [2] was under 7.00; in experiment [3], over 7.30.
With `CCN1c2ncc(CCOc3ccc(C(=O)NCC4(C(=O)O)CCCC4)cc3C)cc2C(=O)N(C)c2cccnc21` [Entry 4018], in experiment [1], the EC50 was 10 to 50 nM. Besides, the pEC50 in the experiment on HIV-1 wild type (Human immunodeficiency virus 1) is over 8.00. Further, the pIC50 is under 7.00 in experiment [2] and over 7.30 in experiment [3].
In the case of `CCN1c2ncc(CCOc3ccc(-c4ccc(C(=O)O)cc4)cc3)cc2C(=O)N(C)c2cccnc21` [Entry 1001], the pEC50 in experiment [1] is under 7.30; in the experiment on HIV-1 wild type, over 8.00. Besides, the pIC50 in experiment [2] (setting [4]) is 7.00 to 7.30; in experiment [3], over 7.30.
Regarding `CCN1c2ncc(CCOc3ccc(C(=O)Nc4ccc(CC(=O)O)cc4)cc3C)cc2C(=O)N(C)c2cccnc21` [Entry 3005], the EC50 was 10 to 50 nM in experiment [1] and under 10 nM with HIV-1 wild type. The pIC50 in experiment [2] and in experiment [3] was over 7.30 throughout.
